Experiments:
Type in all cases: in vivo
Brachiaria plantaginea = test: Pre-emergence herbicidal efficacy, % control of Brachiaria plantaginea; details: for % Control 35 DAA Brachiaria plantaginea: 35 DAA (Table 3)
Procedure: (§1) Experiments were carried out evaluate the efficacy, selectivity and synergism of propisochlor combinations when applied at soybean pre-emergence.
(§2) The evaluation for the damage on undesired weeds caused by the compositions was carried out using a scale from 0 to 100%, compared to the untreated control plants. Here, 0 means no damage and 100 means complete destruction of the plants.
(§3) The tables 1 below relate to the herbicidal activity, of the individual actives and the combinations applied in pre-emergence application at 35 days after administration (DAA) treatment.

Ipomoea hederifolia = test: Pre-emergence herbicidal efficacy, % weed control of Ipomoea hederifolia
Procedure: as §1, §2, §3

Spermacoce verticillata = test: Pre-emergence herbicidal efficacy, % weed control of Spermacoce verticillata
Procedure: as §1, §2, §3

Brachiaria decumbens = test: Pre-emergence herbicidal efficacy, % control of Brachiaria decumbens
Procedure: as §1, §2

Ipomoea grandifolia = test: Pre-emergence herbicidal efficacy, % control of Ipomoea grandifolia
Procedure: as §1, §2

Cenchrus echinatus = test: Pre-emergence herbicidal efficacy, % control of Cenchrus echinatus
Procedure: as §1, §2

CCOc1nc(F)cc2nc(S(=O)(=O)Nc3c(Cl)cccc3Cl)nn12 [Diclosulam]
% Control of Brachiaria plantaginea 35 DAA (Brachiaria plantaginea; 20 g ai/ha): 50.0%

Cc1nn(-c2cc(NS(C)(=O)=O)c(Cl)cc2Cl)c(=O)n1C(F)F [Sulfentrazone]
% Weed control 35 DAA Ipomoea hederifolia (Ipomoea hederifolia; 75 g ai/ha): 98.00%
% Weed control 35 DAA Spermacoce verticillata (Spermacoce verticillata; 75 g ai/ha): 92.25%
% Control 35 DAA Brachiaria plantaginea (Brachiaria plantaginea; 150 g ai/ha): 65.00%

CC(C)C1(C)N=C(c2ncccc2C(=O)O)NC1=O (stereo not drawn) [imazapyr]
% Control of Brachiaria decumbens 7 DAA (Brachiaria decumbens; 26.6 g ai/ha): 30%
% Control of Brachiaria decumbens 14 DAA (Brachiaria decumbens; 26.6 g ai/ha): 12.5%
% Control of Brachiaria decumbens 21 DAA (Brachiaria decumbens; 26.6 g ai/ha): 6.3%
% Control of Brachiaria decumbens 28 DAA (Brachiaria decumbens; 26.6 g ai/ha): 2.5%
% Control of Ipomoea grandifolia 7 DAA (Ipomoea grandifolia; 66.6 g ai/ha): 16.3%
% Control of Ipomoea grandifolia 14 DAA (Ipomoea grandifolia; 66.6 g ai/ha): 30.0%
% Control of Ipomoea grandifolia 21 DAA (Ipomoea grandifolia; 66.6 g ai/ha): 51.3%
% Control of Ipomoea grandifolia 28 DAA (Ipomoea grandifolia; 66.6 g ai/ha): 62.5%
% Control of Ipomoea grandifolia 35 DAA (Ipomoea grandifolia; 66.6 g ai/ha): 63.8%
% Control - Cenchrus echinatus 7 DAA (Cenchrus echinatus; 26.6 g ai/ha): 3.8%
% Control - Cenchrus echinatus 28 DAA (Cenchrus echinatus; 26.6 g ai/ha): 0.0%
% Control - Cenchrus echinatus 35 DAA (Cenchrus echinatus; 26.6 g ai/ha): 0.0%

CC(C)C1(C)N=C(c2nc3ccccc3cc2C(=O)O)NC1=O (stereo not drawn) [imazaquin]
% Control of Brachiaria decumbens 7 DAA (Brachiaria decumbens; 80.5 g ai/ha): 30%
% Control of Brachiaria decumbens 14 DAA (Brachiaria decumbens; 80.5 g ai/ha): 22.5%
% Control of Brachiaria decumbens 21 DAA (Brachiaria decumbens; 80.5 g ai/ha): 21.3%
% Control of Brachiaria decumbens 28 DAA (Brachiaria decumbens; 80.5 g ai/ha): 18.8%
% Control - Cenchrus echinatus 7 DAA (Cenchrus echinatus; 80.5 g ai/ha): 18.8%
% Control - Cenchrus echinatus 28 DAA (Cenchrus echinatus; 80.5 g ai/ha): 10.0%
% Control - Cenchrus echinatus 35 DAA (Cenchrus echinatus; 80.5 g ai/ha): 6.3%

CCc1cccc(C)c1N(COC(C)C)C(=O)CCl [propisochlor]
% Weed control 35 DAA Ipomoea hederifolia (Ipomoea hederifolia; 525 g ai/ha): 26.25%
% Weed control 35 DAA Ipomoea hederifolia (Ipomoea hederifolia; 675 g ai/ha): 27%
% Control of Brachiaria decumbens 7 DAA (Brachiaria decumbens; 540 g ai/ha): 89.5%
% Control of Brachiaria decumbens 14 DAA (Brachiaria decumbens; 540 g ai/ha): 85.8%
% Control of Brachiaria decumbens 21 DAA (Brachiaria decumbens; 540 g ai/ha): 78.8%
% Control of Brachiaria decumbens 28 DAA (Brachiaria decumbens; 540 g ai/ha): 70%
% Control of Brachiaria decumbens 7 DAA (Brachiaria decumbens; 1080 g ai/ha): 92.8%
% Control of Brachiaria decumbens 14 DAA (Brachiaria decumbens; 1080 g ai/ha): 91%
% Control of Brachiaria decumbens 21 DAA (Brachiaria decumbens; 1080 g ai/ha): 85%
% Control of Brachiaria decumbens 28 DAA (Brachiaria decumbens; 1080 g ai/ha): 76.3%
% Weed control 35 DAA Spermacoce verticillata (Spermacoce verticillata; 525 g ai/ha): 92.75%
% Weed control 35 DAA Spermacoce verticillata (Spermacoce verticillata; 675 g ai/ha): 95.75%
% Control of Brachiaria plantaginea 35 DAA (Brachiaria plantaginea; 1200 g ai/ha): 84.50%
% Control 35 DAA Brachiaria plantaginea (Brachiaria plantaginea; 1200 g ai/ha): 84.50%
% Control of Ipomoea grandifolia 7 DAA (Ipomoea grandifolia; 540 g ai/ha): 81.3%
% Control of Ipomoea grandifolia 14 DAA (Ipomoea grandifolia; 540 g ai/ha): 87.0%
% Control of Ipomoea grandifolia 21 DAA (Ipomoea grandifolia; 540 g ai/ha): 87.5%
% Control of Ipomoea grandifolia 28 DAA (Ipomoea grandifolia; 540 g ai/ha): 91.3%
% Control of Ipomoea grandifolia 35 DAA (Ipomoea grandifolia; 540 g ai/ha): 91.8%
% Control - Cenchrus echinatus 7 DAA (Cenchrus echinatus; 540.0 g ai/ha): 91.3%
% Control - Cenchrus echinatus 28 DAA (Cenchrus echinatus; 540.0 g ai/ha): 75.8%
% Control - Cenchrus echinatus 35 DAA (Cenchrus echinatus; 540.0 g ai/ha): 65.0%
% Control - Cenchrus echinatus 7 DAA (Cenchrus echinatus; 1080.0 g ai/ha): 95.3%
% Control - Cenchrus echinatus 28 DAA (Cenchrus echinatus; 1080.0 g ai/ha): 85.0%
% Control - Cenchrus echinatus 35 DAA (Cenchrus echinatus; 1080.0 g ai/ha): 80.0%
